Measured values reported in paper PMC10817945, “Design of a novel analogue peptide with potent antibiofilm activities against Staphylococcus aureus based upon a sapecin B-derived peptide” (Scientific Reports, 2024).
Values after ≈ are worked out from the molar mass of the structure shown. Values joined by “and” are separate entries in the source; they are usually repeats but may differ in a detail not shown here. Identical values can stand only once. Like-named read-outs stand apart in the source and are kept apart here.

What was measured:
S. aureus isolates [1] = assay: Kirby-Bauer disk diffusion antimicrobial susceptibility testing; type: cell-based, Staphylococcus aureus; note: key: R: Resistant; S: Susceptible
Source text: Three MRSA, two MSSA clinical isolates, and one S. aureus reference strain (ATCC 25923) were investigated in this study. […] The presence of the mecA/mecC gene was studied by PCR in all cefoxitin resistant isolates[42],[43].

Human red blood cells = assay: Hemolysis assay; conditions: human erythrocytes, 1 h, 37 °C
Experimental: The assay was performed using fresh human blood samples containing citrate phosphate dextrose anticoagulant collected from a blood bank (Iranian Blood Transfusion Organization). Human red blood cells (RBC) were centrifuged at 1700×g for 5 min; then the supernatant was removed and the erythrocyte pellet was diluted 1:100 in PBS to obtain a 1% erythrocyte suspension. […] Then, 50 μl of the 1% erythrocyte suspension and 50 μl of the peptides were mixed and added to wells of a 96-well polypropylene conical bottom microplate and incubated at 37 °C for 1 h. Following centrifugation of the samples at 1700×g for 5 min, 50 μl of the supernatant was transferred to wells of a 96-well flat-bottom plate for the absorbance measurement at 405 nm in a microplate reader. Identical volumes of Triton X-100 (1%) and PBS were used as positive and negative controls, respectively. The selectivity indexes (SI) were also determined as a toxicity indicator.

S. aureus isolates [2] = assay: microbe, parasite or virus in culture; type: cell-based, Staphylococcus aureus
Experimental: (§1) Minimum inhibitory concentrations (MIC) of KLK, mKLK, and vancomycin were determined using microdilution broth assay according to clinical and laboratory standards institute (CLSI) guidelines with some modifications. Briefly, overnight cultures were diluted in Muller-Hinton broth (MHB; Merck, Germany) to achieve a final density of 5 × 10^5 CFU/ml. A volume of 100 μl of bacterial suspension was added to wells of sterile 96-well plates containing 100 μl of two-fold peptide dilutions, ranging from 0.25 to 256 µg/ml. Vancomycin was used as a positive control in this assay. […] MBC was determined by removing samples from wells with no visible growth, serially diluting, and plating on Mueller Hinton (MH) agar plates for CFU counting.

S. aureus isolates [3] = type: cell-based, Staphylococcus aureus
Experimental: as §1

[4] = system: one MRSA and reference strain (ATCC25923); assay: Time-kill kinetics assay
Experimental: The peptide-free control was included for each strain. Following incubation at 37 °C for 0, 0.25, 0.5, 1, 2, 4, 5, and 24 h, each sample was serially diluted, plated onto Mueller–Hinton (MH) agar (Merck, Germany) plates and incubated at 37 °C. The viable plate count method was performed after incubation for 24 h and the counts were expressed as Log CFU/ml[44].

[5] = system: clinical Salmonella isolates; parameters: method as in PMID 34361810; conditions: cited from earlier work
[6] = system: drug resistant Mycobacterium abscessus isolates; parameters: method as in ref 33 (Sudadech et al.); conditions: ref 33 (Sudadech et al.), cited from earlier work

CC[C@H]1OC(=O)[C@H](C)[C@@H](O[C@H]2C[C@@](C)(OC)[C@@H](O)[C@H](C)O2)[C@H](C)[C@@H](O[C@@H]2O[C@H](C)C[C@H](N(C)C)[C@H]2O)[C@](C)(O)C[C@@H](C)C(=O)[C@H](C)[C@@H](O)[C@]1(C)O [E, Erythromycin]
Antimicrobial susceptibility testing (S. aureus isolates [1]; MRSA-1): S
Antimicrobial susceptibility testing (S. aureus isolates [1]; MRSA-2): S
Antimicrobial susceptibility testing (S. aureus isolates [1]; MRSA-3): S
Antimicrobial susceptibility testing (S. aureus isolates [1]; MSSA-1): S
Antimicrobial susceptibility testing (S. aureus isolates [1]; MSSA-2): S

CC[C@H](C)[C@H](NC(=O)[C@H](CCCCN)NC(=O)[C@H](CCC(=O)O)NC(=O)[C@H](CCCCN)NC(=O)[C@H](CO)NC(=O)[C@H](CCCCN)NC(=O)[C@H](CCCNC(=N)N)NC(=O)[C@H](Cc1ccccc1)NC(=O)[C@H](Cc1ccccc1)NC(=O)[C@H](CC(=O)O)NC(=O)CNC(=O)[C@H](CC(C)C)NC(=O)[C@@H](N)CC(C)C)C(=O)NCC(=O)N[C@@H](CCCCN)C(=O)N[C@@H](CCC(=O)O)C(=O)N[C@@H](Cc1ccccc1)C(=O)N[C@@H](CCCCN)C(=O)N[C@@H](CCCNC(=N)N)C(=O)N[C@H](C(=O)N[C@H](C(=O)N[C@@H](CCC(N)=O)C(=O)N[C@@H](CCCNC(=N)N)C(=O)N[C@H](C(=O)N[C@@H](CCCCN)C(=O)N[C@@H](CC(=O)O)C(=O)N[C@@H](Cc1ccccc1)C(=O)N[C@@H](CC(C)C)C(=O)N[C@@H](CCCNC(=N)N)C(=O)N[C@@H](CC(N)=O)C(=O)N[C@@H](CC(C)C)C(=O)N[C@H](C(=O)N1CCC[C@H]1C(=O)N[C@@H](CCCNC(=N)N)C(=O)N[C@H](C(=O)N[C@@H](CCC(=O)O)C(=O)N[C@@H](CO)C(=O)O)[C@@H](C)O)C(C)C)[C@@H](C)CC)C(C)C)[C@@H](C)CC [LL-37]
HC50 (Human red blood cells): 150 µM and 673.5 µg/ml

Trimethoprim/sulphamethoxazole [SXT]
Antimicrobial susceptibility testing (S. aureus isolates [1]; MRSA-1): S
Antimicrobial susceptibility testing (S. aureus isolates [1]; MRSA-2): S
Antimicrobial susceptibility testing (S. aureus isolates [1]; MRSA-3): R
Antimicrobial susceptibility testing (S. aureus isolates [1]; MSSA-1): S
Antimicrobial susceptibility testing (S. aureus isolates [1]; MSSA-2): S

CNC(C)C1CCC(N)C(OC2C(N)CC(N)C(OC3OCC(C)(O)C(NC)C3O)C2O)O1 (centres unmarked) [GEN, Gentamicin]
Antimicrobial susceptibility testing (S. aureus isolates [1]; MRSA-1): S
Antimicrobial susceptibility testing (S. aureus isolates [1]; MRSA-2): S
Antimicrobial susceptibility testing (S. aureus isolates [1]; MRSA-3): S
Antimicrobial susceptibility testing (S. aureus isolates [1]; MSSA-1): S
Antimicrobial susceptibility testing (S. aureus isolates [1]; MSSA-2): S

CO[C@H]1/C=C/O[C@@]2(C)Oc3c(C)c(O)c4c(O)c(c(/C=N/N5CCN(C)CC5)c(O)c4c3C2=O)NC(=O)/C(C)=C\C=C\[C@H](C)[C@H](O)[C@@H](C)[C@@H](O)[C@@H](C)[C@H](OC(C)=O)[C@@H]1C [RP, Rifampicin]
Antimicrobial susceptibility testing (S. aureus isolates [1]; MRSA-1): S
Antimicrobial susceptibility testing (S. aureus isolates [1]; MRSA-2): S
Antimicrobial susceptibility testing (S. aureus isolates [1]; MRSA-3): S
Antimicrobial susceptibility testing (S. aureus isolates [1]; MSSA-1): S
Antimicrobial susceptibility testing (S. aureus isolates [1]; MSSA-2): S

Amoxicillin/clavulanic acid [AMC]
Antimicrobial susceptibility testing (S. aureus isolates [1]; MRSA-1): R
Antimicrobial susceptibility testing (S. aureus isolates [1]; MRSA-2): R
Antimicrobial susceptibility testing (S. aureus isolates [1]; MRSA-3): R
Antimicrobial susceptibility testing (S. aureus isolates [1]; MSSA-1): S
Antimicrobial susceptibility testing (S. aureus isolates [1]; MSSA-2): S

CC1(C)S[C@@H]2[C@H](NC(=O)[C@H](N)c3ccccc3)C(=O)N2[C@H]1C(=O)O [AMP, Ampicilln]
Antimicrobial susceptibility testing (S. aureus isolates [1]; MRSA-1): R
Antimicrobial susceptibility testing (S. aureus isolates [1]; MRSA-2): R
Antimicrobial susceptibility testing (S. aureus isolates [1]; MRSA-3): R
Antimicrobial susceptibility testing (S. aureus isolates [1]; MSSA-1): S
Antimicrobial susceptibility testing (S. aureus isolates [1]; MSSA-2): S

CN[C@H](CC(C)C)C(=O)N[C@H]1C(=O)N[C@@H](CC(N)=O)C(=O)N[C@H]2C(=O)N[C@H]3C(=O)N[C@H](C(=O)N[C@H](C(=O)O)c4cc(O)cc(O)c4-c4cc3ccc4O)[C@H](O)c3ccc(c(Cl)c3)Oc3cc2cc(c3O[C@@H]2O[C@H](CO)[C@@H](O)[C@H](O)[C@H]2O[C@H]2C[C@](C)(N)[C@H](O)[C@H](C)O2)Oc2ccc(cc2Cl)[C@H]1O [vancomycin, Vancomycin]
MIC (S. aureus isolates [2]; ATCC25923): 0.25 µg/mL (≈ 0.173 µM)
MIC (S. aureus isolates [2]; MRSA-1): 0.25 µg/mL (≈ 0.173 µM)
MIC (S. aureus isolates [2]; MRSA-2): 0.5 µg/mL (≈ 0.345 µM)
MIC (S. aureus isolates [2]; MRSA-3): 0.5 µg/mL (≈ 0.345 µM)
MIC (S. aureus isolates [2]; MSSA-1): 0.25 µg/mL (≈ 0.173 µM)
MIC (S. aureus isolates [2]; MSSA-2): 0.25 µg/mL (≈ 0.173 µM)
MIC (S. aureus isolates [2]; Staphylococcus aureus): 0.25 to 0.5 µg/mL (≈ 0.173 to 0.345 µM)
MBC (S. aureus isolates [3]; ATCC25923): 0.25 µg/mL (≈ 0.173 µM)
MBC (S. aureus isolates [3]; MRSA-1): 0.5 µg/mL (≈ 0.345 µM)
MBC (S. aureus isolates [3]; MRSA-2): 0.5 µg/mL (≈ 0.345 µM)
MBC (S. aureus isolates [3]; MRSA-3): 0.5 µg/mL (≈ 0.345 µM)
MBC (S. aureus isolates [3]; MSSA-1): 0.25 µg/mL (≈ 0.173 µM)
MBC (S. aureus isolates [3]; MSSA-2): 0.25 µg/mL (≈ 0.173 µM)
Antimicrobial susceptibility testing (S. aureus isolates [1]; MRSA-1): S
Antimicrobial susceptibility testing (S. aureus isolates [1]; MRSA-2): S
Antimicrobial susceptibility testing (S. aureus isolates [1]; MRSA-3): S
Antimicrobial susceptibility testing (S. aureus isolates [1]; MSSA-1): S
Antimicrobial susceptibility testing (S. aureus isolates [1]; MSSA-2): S
time after which no regrowth was observed ([4]; ATCC 25923, 1 × MIC (0.25 μg/ml)): 24 h
reduction in viable cell count ([4]; ATCC 25923, 1 × MIC, during 4 h): ~ 3 log
time after which no regrowth was observed ([4]; ATCC 25923, 2 × MIC): 24 h
reduction in viable cell count ([4]; ATCC 25923, 2 × MIC, within 4 h): ~ 4 log
time after which no regrowth was observed ([4]; MRSA, 1 × MIC): 24 h
reduction in viable cell count ([4]; MRSA, 1 × MIC (0.5 μg/ml), during 5 h): ~ 2 log
time after which no growth was observed ([4]; MRSA, 2 × MIC (1 μg/ml)): 24 h
reduction in viable cell count ([4]; MRSA, 2 × MIC (1 μg/ml), within 4 h): ~ 2 log
reduction in viable cell count ([4]; MRSA, 2 × MIC (1 μg/ml), within 5 h): ~3 log

O=C(N[C@H](CO)[C@H](O)c1ccc([N+](=O)[O-])cc1)C(Cl)Cl [C, Chloramphenicol]
Antimicrobial susceptibility testing (S. aureus isolates [1]; MRSA-1): S
Antimicrobial susceptibility testing (S. aureus isolates [1]; MRSA-2): S
Antimicrobial susceptibility testing (S. aureus isolates [1]; MRSA-3): S
Antimicrobial susceptibility testing (S. aureus isolates [1]; MSSA-1): S
Antimicrobial susceptibility testing (S. aureus isolates [1]; MSSA-2): S

KLKLLLLLKL [KLK1, variant of KLK]
MIC [5]: > 256 µM
killing ([6]; against 62.5% of the tested isolates within 24 h): ~ 99%
MIC ([6]; drug resistant Mycobacterium abscessus isolates): < 50 µg/mL

CO[C@@]1(NC(=O)Cc2cccs2)C(=O)N2C(C(=O)O)=C(COC(N)=O)CS[C@@H]21 [FOX, Cefoxicitin]
Antimicrobial susceptibility testing (S. aureus isolates [1]; MRSA-1): R
Antimicrobial susceptibility testing (S. aureus isolates [1]; MRSA-2): R
Antimicrobial susceptibility testing (S. aureus isolates [1]; MRSA-3): R
Antimicrobial susceptibility testing (S. aureus isolates [1]; MSSA-1): S
Antimicrobial susceptibility testing (S. aureus isolates [1]; MSSA-2): S

CC(=O)NC[C@H]1CN(c2ccc(N3CCOCC3)c(F)c2)C(=O)O1 [LZD, Linezolide]
Antimicrobial susceptibility testing (S. aureus isolates [1]; MRSA-1): S
Antimicrobial susceptibility testing (S. aureus isolates [1]; MRSA-2): S
Antimicrobial susceptibility testing (S. aureus isolates [1]; MRSA-3): S
Antimicrobial susceptibility testing (S. aureus isolates [1]; MSSA-1): S
Antimicrobial susceptibility testing (S. aureus isolates [1]; MSSA-2): S

CO/N=C(\C(=O)N[C@@H]1C(=O)N2C(C(=O)[O-])=C(C[N+]3(C)CCCC3)CS[C@H]12)c1csc(N)n1 [FEP, Cefepime]
Antimicrobial susceptibility testing (S. aureus isolates [1]; MRSA-1): R
Antimicrobial susceptibility testing (S. aureus isolates [1]; MRSA-2): R
Antimicrobial susceptibility testing (S. aureus isolates [1]; MRSA-3): R
Antimicrobial susceptibility testing (S. aureus isolates [1]; MSSA-1): S
Antimicrobial susceptibility testing (S. aureus isolates [1]; MSSA-2): S

CN(C)[C@@H]1C(O)=C(C(N)=O)C(=O)[C@@]2(O)C(O)=C3C(=O)c4c(O)cccc4[C@@](C)(O)[C@H]3C[C@@H]12 [TE, Tetracycline]
Antimicrobial susceptibility testing (S. aureus isolates [1]; MRSA-1): R
Antimicrobial susceptibility testing (S. aureus isolates [1]; MRSA-2): R
Antimicrobial susceptibility testing (S. aureus isolates [1]; MRSA-3): R
Antimicrobial susceptibility testing (S. aureus isolates [1]; MSSA-1): R
Antimicrobial susceptibility testing (S. aureus isolates [1]; MSSA-2): R
